Reference: US6441195B1, “Substituted sulphonylamino(thio) carbonyl compounds” (Bayer Aktiengesellschaft, priority 1995, dated 2002)

Key:
Format in all cases: in vivo
[1] = system: Maize; assay: Post-emergence test/greenhouse, Maize; details: greenhouse, after three weeks
Method: (§1) Solvent: 5 parts by weight of acetone
(§2) Emulsifier: 1 part by weight of alkylaryl polyglycol ether
(§3) To produce a suitable preparation of active compound, 1 part by weight of active compound is mixed with the stated amount of solvent, the stated amount of emulsifier is added and the concentrate is diluted with water to the desired concentration.
(§4) Test plants which have a height of 5-15 cm are sprayed with the preparation of the active compound in such a way as to apply the particular amounts of active compound desired per unit area. The concentration of the spray liquor is chosen so that the particular amounts of active compound desired are applied in 2000 l of water/ha.
(§5) After three weeks, the degree of damage to the plants is rated in % damage in comparison to the development of the untreated control.
(§6) 0%=no action (like untreated control)

[2] = system: Sorghum; assay: Post-emergence test/greenhouse, Sorghum; details: greenhouse, after three weeks
Method: as §1, §2, §3, §4, §5, §6

[3] = system: Ambrosia; assay: Pre-emergence test/Greenhouse, Ambrosia; details: after three weeks
Summary of the method: (§7)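 Pre-emergence soil drench ~24 h after sowing; compound in solvent/emulsifier diluted with water, constant water per area, dose defined by rate per unit area. Read-out at 3 wk: % damage vs untreated control, 0% = no action.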

[4] = system: Gallium; assay: Post-emergence test/greenhouse, Gallium; details: greenhouse, after three weeks
Method: as §1, §2, §3, §4, §5, §6

[5] = system: Lolium; assay: Post-emergence test/greenhouse, Lolium; details: greenhouse, after three weeks
Method: as §1, §2, §3, §4, §5, §6

[6] = system: Echinochloa; assay: Post-emergence test/greenhouse, Echinochloa; details: greenhouse, after three weeks
Method: as §1, §2, §3, §4, §5, §6

[7] = system: weeds; assay: Pre-emergence test (greenhouse), activity against weeds; details: in words
Summary of the method: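 Three weeks after treatment, % damage relative to untreated plants is scored, 0% meaning no effect. Seeds in normal soil received, roughly one day post-sowing, an aqueous dilution of an acetone/emulsifier concentrate, with the rate per unit area, not concentration, being the relevant dose.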

[8] = system: Digitaria; assay: Post-emergence test/greenhouse, Digitaria; details: greenhouse, after three weeks
Method: as §1, §2, §3, §4, §5, §6

[9] = system: Sorghum; assay: Pre-emergence test/Greenhouse, Sorghum; details: after three weeks
Summary of the method: as §7

[10] = system: Poa; assay: Pre-emergence test/Greenhouse, Poa; details: after three weeks
Summary of the method: as §7

[11] = system: Solanum; assay: Pre-emergence test/Greenhouse, Solanum; details: after three weeks
Summary of the method: as §7

[12] = system: Amaranthus; assay: Post-emergence test/greenhouse, Amaranthus; details: greenhouse, after three weeks
Method: as §1, §2, §3, §4, §5, §6

[13] = system: Maize; assay: Pre-emergence test/Greenhouse, Maize; details: in vivo
Summary of the method: as §7

[14] = system: weeds; assay: Post-emergence test (greenhouse), activity against weeds; details: in words
Method: as §1, §2, §3, §4, §5, §6

[15] = system: Matricaria; assay: Post-emergence test/greenhouse, Matricaria; details: greenhouse, after three weeks
Method: as §1, §2, §3, §4, §5, §6

[16] = system: Stellaria; assay: Post-emergence test/greenhouse, Stellaria; details: greenhouse, after three weeks
Method: as §1, §2, §3, §4, §5, §6

[17] = system: Lolium; assay: Pre-emergence test/Greenhouse, Lolium; details: after three weeks
Summary of the method: as §7

[18] = system: Matricaria; assay: Pre-emergence test/Greenhouse, Matricaria; details: after three weeks
Summary of the method: as §7

For `CCOc1nn(C(=O)NS(=O)(=O)c2c(C)csc2C(=O)OC)c(=O)n1C1CC1` [Example 30], the “degree of damage, Maize” value ([1]; 60 g of ai./ha) was 15%, the “degree of damage, Sorghum” value ([2]; 60 g of ai./ha) was 95% and the “degree of damage to the plants (% damage vs untreated control), Ambrosia” value ([3]; 30 g of ai./ha) was 95%. For the same compound, the “degree of damage, Gallium” value ([4]; 60 g of ai./ha) was 85%, the “degree of damage, Lolium” value ([5]; 60 g of ai./ha) was 60% and the “degree of damage, Echinochloa” value ([6]; 60 g of ai./ha) was 70%. The activity against weeds [7] was “very strong activity against weeds”, the “degree of damage, Digitaria” value ([8]; 60 g of ai./ha) was 90% and the “degree of damage to the plants (% damage vs untreated control), Sorghum” value ([9]; 30 g of ai./ha) was 80%. The “degree of damage to the plants (% damage vs untreated control), Poa” value ([10]; 30 g of ai./ha) was 95%, the “degree of damage to the plants (% damage vs untreated control), Solanum” value ([11]; 30 g of ai./ha) was 95% and the “degree of damage, Amaranthus” value ([12]; 60 g of ai./ha) was 100%. The “degree of damage to the plants (% damage vs untreated control), Maize” value [13] was 0%, the activity against weeds [14] was “very strong activity against weeds” and the “degree of damage, Matricaria” value ([15]; 60 g of ai./ha) was 100%. The “degree of damage, Stellaria” value ([16]; 60 g of ai./ha) was 100%, the “degree of damage to the plants (% damage vs untreated control), Lolium” value ([17]; 30 g of ai./ha) was 95% and the “degree of damage to the plants (% damage vs untreated control), Matricaria” value ([18]; 30 g of ai./ha) was 95%.

For `COC(=O)c1scc(C)c1S(=O)(=O)NC(=O)n1nc(OC)n(C)c1=O` [Example 31], the “degree of damage, Maize” value ([1]; 30 g of ai./ha) was 5%, the “degree of damage, Sorghum” value ([2]; 30 g of ai./ha) was 80% and the “degree of damage to the plants (% damage vs untreated control), Ambrosia” value ([3]; 15 g of ai./ha) was 95%. For the same compound, the “degree of damage, Gallium” value ([4]; 30 g of ai./ha) was 80%, the “degree of damage, Lolium” value ([5]; 30 g of ai./ha) was 90% and the “degree of damage, Echinochloa” value ([6]; 30 g of ai./ha) was 95%. For the same compound, the activity against weeds [7] was “very strong activity against weeds”, the “degree of damage, Digitaria” value ([8]; 30 g of ai./ha) was 95% and the “degree of damage to the plants (% damage vs untreated control), Sorghum” value ([9]; 15 g of ai./ha) was 80%. For the same compound, the “degree of damage to the plants (% damage vs untreated control), Poa” value ([10]; 15 g of ai./ha) was 95%, the “degree of damage to the plants (% damage vs untreated control), Solanum” value ([11]; 15 g of ai./ha) was 95% and the “degree of damage, Amaranthus” value ([12]; 30 g of ai./ha) was 100%. The “degree of damage to the plants (% damage vs untreated control), Maize” value [13] was 10%, the activity against weeds [14] was “very strong activity against weeds” and the “degree of damage, Matricaria” value ([15]; 30 g of ai./ha) was 100%. The “degree of damage, Stellaria” value ([16]; 30 g of ai./ha) was 95%, the “degree of damage to the plants (% damage vs untreated control), Lolium” value ([17]; 15 g of ai./ha) was 95% and the “degree of damage to the plants (% damage vs untreated control), Matricaria” value ([18]; 15 g of ai./ha) was 95%.
